# Assay results as given in patent US9458181B2, “Cathepsin cysteine protease inhibitors” (Merck Sharp & Dohme Corp., priority 2013, dated 2016).
# Assays:
# human cathepsin F = target: T1, human cathepsin F (Homo sapiens, UniProt Q9UBX1); experiment: Cathepsin F assay (hCat F); assay type: biochemical; conditions: human cathepsin F 10 nM, Z-Phe-Arg-AMC 8 μM, pH 5.5, 15 min preincubation; read-out: hCat F IP
# T1 sequence (Q9UBX1 271-484): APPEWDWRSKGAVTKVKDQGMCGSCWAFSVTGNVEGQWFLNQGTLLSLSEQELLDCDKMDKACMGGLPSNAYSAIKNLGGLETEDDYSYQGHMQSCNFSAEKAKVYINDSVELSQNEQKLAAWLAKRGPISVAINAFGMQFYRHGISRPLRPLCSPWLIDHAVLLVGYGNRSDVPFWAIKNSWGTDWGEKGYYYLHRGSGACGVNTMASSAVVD
# Experimental: Cathepsin F assay (hCat F)
# (§1) Serial dilutions (⅓) from 500 μM down to 0.025 μM of test compounds were prepared in dimethyl sulfoxide (DMSO). Then 0.5 μL of DMSO from each dilution were added to 18.75 μL of assay buffer (MES, 50 mM (pH 5.5); EDTA, 2.5 mM; DTT, 2.5 mM and 10% DMSO) containing human cathepsin F (10 nM) in assay buffer solution. The assay solutions were mixed for 5-10 seconds on a shaker plate and incubated for 15 minutes at room temperature. Z-Phe-Arg-AMC (8 μM) in 6.25 μL of assay buffer was added to the assay solutions. Hydrolysis of the coumarin leaving group (AMC) was followed by spectrofluorometry (Exp, =360 nm; EmX=460 nm) for 20 minutes. Percent of inhibition were calculated by fitting experimental values to standard mathematical model for dose response curve.
# human cathepsin K = human cathepsin K (UniProt P43236); experiment: Cathepsin K Assay (hrbCat K); assay type: biochemical; conditions: human cathepsin K 0.4 nM, Z-Leu-Arg-AMC 8 μM, pH 5.5, 15 min preincubation; read-out: hrbCat K IP
# Experimental: Cathepsin K Assay (hrbCat K)
# as §1, with “K (0.4” for “F (10”, “Z-Leu-Arg-AMC” for “Z-Phe-Arg-AMC”, “(Exλ=360” for “(Exp, =360”, “Emλ=460” for “EmX=460”, “30” for “20”
SMILES,IC50 (human cathepsin F) [nM],IC50 (human cathepsin K) [nM]
"N#CC1(NC(=O)[C@@H]2CCCC[C@H]2c2oc(-c3cccc(Cl)c3F)nc2-c2ccc(N3CCS(=O)(=O)CC3)cc2)CC1 [Example 6, (1R,2R)-2-(2-(3-chloro-2-fluorophenyl)-4-(4-(1,1-dioxidothiomorpholino)phenyl)oxazol-5-yl)-N-(1-cyanocyclopropyl)cyclohexanecarboxamide]",631,0.48
"N#CC1(NC(=O)[C@@H]2CCCC[C@H]2c2oc(-c3ccc(F)cc3)nc2-c2ccc(N3CCS(=O)(=O)CC3)cc2)CC1 [Example 7, (1R,2R)—N-(1-Cyanocyclopropyl)-2-{4-[4-(1,1-dioxo-1λ^6-thiomorpholin-4-yl)phenyl]-2-(4-fluorophenyl)-1,3-oxazol-5-yl}cyclohexanecarboxamide]",840,1.49
"CC(C)(C)c1nc(-c2ccc(N3CCS(=O)(=O)CC3)cc2)c([C@@H]2CCCC[C@H]2C(=O)NC2(C#N)CC2)s1 [Example 10, (1R,2R)-2-(2-(tert-butyl)-4-(4-(1,1-dioxidothiomorpholino)phenyl)thiazol-5-yl)-N-(1-cyanocyclopropyl)cyclohexanecarboxamide]",1440,1.65
"CC(C)(C)c1nc(-c2ccc(N3CCS(=O)(=O)CC3)cc2)c([C@@H]2CCCC[C@H]2C(=O)NC2(C#N)CC2)o1 [Example 11, (1R,2R)-2-(2-(tert-butyl)-4-(4-(1,1-dioxidothiomorpholino)phenyl)oxazol-5-yl)-N-(1-cyanocyclopropyl) cyclohexanecarboxamide]",681,0.69
"Cc1nc(-c2ccc(N3CCS(=O)(=O)CC3)cc2)c([C@@H]2CCC(F)(F)C[C@H]2C(=O)NCC#N)o1 [Example 12, (1R,2R)-N-(cyanomethyl)-2-(4-(4-(1,1-dioxidothiomorpholino)phenyl)-2-methyloxazol-5-yl)-5,5-difluorocyclohexane-carboxamide]",327,0.29
"N#CC1(NC(=O)[C@@H]2CCCC[C@H]2c2oc(C(F)(F)F)nc2-c2ccc(N3CCS(=O)(=O)CC3)cc2)CC1 [Example 13, (1R,2R)-N-(1-cyanocyclopropyl)-2-(4-(4-(1,1-dioxidothiomorpholino)phenyl)-2-(trifluoromethyl)oxazol-5-yl)cyclohexanecarboxamide]",628,0.46
"Cc1nc(-c2ccc(N3CCS(=O)(=O)CC3)cc2)c([C@@H]2CCCC[C@H]2C(=O)NC2(C#N)CC2)o1 [Example 14, (1R,2R)-N-(1-cyanocyclopropyl)-2-(4-(4-(1,1-dioxidothiomorpholino)phenyl)-2-methyloxazol-5-yl)cyclohexanecarboxamide]",1330,1.08
"N#CC1(NC(=O)[C@@H]2CCCC[C@H]2c2oc(CC(F)(F)F)nc2-c2ccc(N3CCS(=O)(=O)CC3)cc2)CC1 [Example 15, (1R,2R)-N-(1-cyanocyclopropyl)-2-(4-(4-(1,1-dioxidothiomorpholino)phenyl)-2-(2,2,2-trifluoroethyl)oxazol-5-yl)cyclohexanecarboxamide]",640,1.8
"N#CC1(NC(=O)[C@@H]2CC(F)(F)CC[C@H]2c2oc(CC(F)(F)F)nc2-c2ccc(N3CCS(=O)(=O)CC3)cc2)CC1 [Example 16, (1R,2R)-N-(1-cyanocyclopropyl)-2-(4-(4-(1,1-dioxidothiomorpholino)phenyl)-2-(2,2,2-trifluoroethyl)oxazol-5-yl)-5,5-difluorocyclohexane-carboxamide]",209,0.61
"Cc1nc(-c2ccc(N3CCS(=O)(=O)CC3)cc2)c([C@@H]2CCC(F)(F)C[C@H]2C(=O)NC2(C#N)CC2)o1 [Example 18, (1R,2R)-N-(1-cyanocyclopropyl)-2-(4-(4-(1,1-dioxidothiomorpholino)phenyl)-2-methyloxazol-5-yl)-5,5-difluorocyclohexane-carboxamide]",178,0.48
"CC(C)(C)c1nc(-c2ccc(N3CCS(=O)(=O)CC3)cc2)c([C@@H]2CCC(F)(F)C[C@H]2C(=O)NC2(C#N)CC2)o1 [Example 19, (1R,2R)-2-(2-(tert-butyl)-4-(4-(1,1-dioxidothiomorpholino)phenyl)oxazol-5-yl)-N-(1-cyanocyclopropyl)-5,5-difluorocyclohexane-carboxamide]",81,0.54
"N#CC1(NC(=O)[C@@H]2CC(F)(F)CC[C@H]2c2oc(-c3ccc(F)cc3)nc2-c2ccc(N3CCS(=O)(=O)CC3)cc2)CC1 [Example 20, (1R,2R)-N-(1-cyanocyclopropyl)-2-(4-(4-(1,1-dioxidothiomorpholino)phenyl)-2-(4-fluorophenyl)oxazol-5-yl)-5,5-difluorocyclohexane-carboxamide]",71,0.28
"Cc1nc(-c2ccc(C(=O)NC3(C#N)CC3)cc2)c([C@@H]2CCCC[C@H]2C(=O)NC2(C#N)CC2)o1 [Example 21, N-(1-cyanocyclopropyl)-4-(5-((1R,2R)-2-((1-cyanocyclopropyl)carbamoyl)cyclohexyl)-2-methyloxazol-4-yl)benzamide]",≥ 10000,61.9
"Cc1nc(-c2ccc(C(=O)N3CCOCC3)cc2)c([C@@H]2CCCC[C@H]2C(=O)NC2(C#N)CC2)o1 [Example 22, (1R,2R)-N-(1-cyanocyclopropyl)-2-(2-methyl-4-(4-(morpholine-4-carbonyl)phenyl)oxazol-5-yl)cyclohexanecarboxamide]",6160,5.09
"CS(=O)(=O)C1CN(c2ccc(-c3nc(C(F)(F)C(F)(F)F)oc3[C@@H]3CCCC[C@H]3C(=O)NC3(C#N)CC3)cc2)C1 [Example 23, (1R,2R)-N-(1-cyanocyclopropyl)-2-(4-(4-(3-(methylsulfonyl)azetidin-1-yl)phenyl)-2-(perfluoroethyl)oxazol-5-yl)cyclohexanecarboxamide]",383,0.62
"N#CC1(NC(=O)[C@@H]2CC(F)(F)CC[C@H]2c2oc(-c3ccc(F)cc3)nc2-c2ccc(C(=O)N3CCOCC3)cc2)CC1 [Example 24, (1R,2R)-N-(1-cyanocyclopropyl)-5,5-difluoro-2-(2-(4-fluorophenyl)-4-(4-(morpholine-4-carbonyl)phenyl)oxazol-5-yl)cyclohexanecarboxamide]",181,0.68
CS(=O)(=O)C1CN(c2ccc(-c3nc(C(F)(F)F)oc3[C@@H]3CCCC[C@H]3C(=O)NC3(C#N)CC3)cc2)C1 [Example 25],447,0.66
"N#CC1(NC(=O)[C@@H]2CCCC[C@H]2c2oc(C(F)(F)C(F)(F)F)nc2-c2ccc(C(=O)N3CCOCC3)cc2)CC1 [Example 26, (1R,2R)-N-(1-cyanocyclopropyl)-2-(4-(4-(morpholine-4-carbonyl)phenyl)-2-(perfluoroethyl)oxazol-5-yl)cyclohexanecarboxamide]",2960,3.64
"N#CC1(NC(=O)[C@@H]2CCCC[C@H]2c2oc(-c3ccc(F)cc3F)nc2-c2ccc(N3CCS(=O)(=O)CC3)cc2)CC1 [Example 27, (1R,2R)-N-(1-cyanocyclopropyl)-2-(2-(2,4-difluorophenyl)-4-(4-(1,1-dioxidothiomorpholino)phenyl)oxazol-5-yl)cyclohexanecarboxamide]",681,0.37
"N#CC1(NC(=O)[C@@H]2CCCC[C@H]2c2oc(-c3ccccn3)nc2-c2ccc(N3CCS(=O)(=O)CC3)cc2)CC1 [Example 28, (1R,2R)-N-(1-cyanocyclopropyl)-2-(4-(4-(1,1-dioxidothiomorpholino)phenyl)-2-(pyridin-2-yl)oxazol-5-yl)cyclohexanecarboxamide]",1360,1.26
"N#CC1(NC(=O)[C@@H]2CCCC[C@H]2c2oc(-c3cccnc3)nc2-c2ccc(N3CCS(=O)(=O)CC3)cc2)CC1 [Example 29, (1R,2R)-N-(1-cyanocyclopropyl)-2-(4-(4-(1,1-dioxidothiomorpholino)phenyl)-2-(pyridin-3-yl)oxazol-5-yl)cyclohexanecarboxamide]",565,0.48
"N#CC1(NC(=O)[C@@H]2CCCC[C@H]2c2oc(-c3ccncc3F)nc2-c2ccc(N3CCS(=O)(=O)CC3)cc2)CC1 [Example 30, (1R,2R)-N-(1-cyanocyclopropyl)-2-(4-(4-(1,1-dioxidothiomorpholino)phenyl)-2-(3-fluoropyridin-4-yl)oxazol-5-yl)cyclohcxanecarboxamide]",757,0.43
